Among the data in patent US7855290B2, “Pyridine derivatives and pyrimidine derivatives (3)” (Eisai R&D Management Co., Ltd., priority 2005, dated 2010) are IC50 values, retold here.

pIC50: −log10 of the molar value.

T1 sequence (P08581 956-1390 limits assumed): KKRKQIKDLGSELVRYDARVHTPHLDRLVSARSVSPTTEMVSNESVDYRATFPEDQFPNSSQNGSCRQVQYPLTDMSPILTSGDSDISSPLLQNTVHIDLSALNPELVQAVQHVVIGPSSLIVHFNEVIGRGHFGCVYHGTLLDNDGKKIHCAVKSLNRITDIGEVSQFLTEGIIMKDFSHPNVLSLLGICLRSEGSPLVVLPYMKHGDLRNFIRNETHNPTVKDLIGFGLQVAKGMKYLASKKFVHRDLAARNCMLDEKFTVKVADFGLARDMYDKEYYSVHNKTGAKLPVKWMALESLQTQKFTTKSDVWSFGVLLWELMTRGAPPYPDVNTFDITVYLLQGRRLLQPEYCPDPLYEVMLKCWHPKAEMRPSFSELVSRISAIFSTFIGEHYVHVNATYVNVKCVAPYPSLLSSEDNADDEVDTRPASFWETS

In one test the test system is Human umbilical vein endothelial cells (HUVECs). The test is described as follows: Inhibitory activity against the growth of vascular endothelial cells stimulated with hepatocyte growth factor. Type of test: cell-based. The note with it: HUVEC, HGF stimulated, third day, Cell Counting Kit-8, read-out: IC50 (cell proliferation activity). The procedure:
Human umbilical vein endothelial cells (HUVECs) were isolated according to the reported method (Shin Seikagaku Jikken Koza, “Cell culturing techniques”, p 197-202), and then cultured in a 5% CO2 incubator (37° C.) using EGM-2 medium (purchased from Clonetics) until the cells reached confluency.
HUVECs were suspended in a serum-free medium for endothelial cell culture (SFM, purchased from GIBCO RBL) containing 2% FBS. The cell suspension (2×10^4 cells/ml) was put in a cell culturing 96-well plate (purchased from NUNC, Production No. 167008) at 0.1 ml/well, and then cultured in a 5% CO2 incubator (37° C.) overnight. After the culture, each well was supplied with 50 μl of the test substance diluted with a 2% FBS-containing serum-free medium for endothelial cell culture and 50 μl of HGF (purchased from R&D) diluted at a concentration of 120 ng/ml with a 2% FBS-containing serum-free medium for endothelial cell culture, followed by culturing in a 5% CO2 incubator (37° C.). On the third day after the addition of the test substance, each well was supplied with 10 μl of Cell Counting Kit-8 (purchased from DOJINDO, Production No. 343-07623), and then the plate was incubated in a 5% CO2 incubator (37° C.) for about 2 hours. After the incubation, using a Plate Reader MTP-500 (Corona Electric), the absorbance of each well was determined at a measurement wavelength of 450 nm and a reference wavelength of 660 nm. While defining the absorbance of a well supplied with HGF and no test substance as 100% cell proliferation activity and the absorbance of the well supplied with no test substance and no HGF as 0% cell proliferation activity, the cell proliferation activity ratio (%) was calculated for each cell.
For `CN1CC(N2CCN(C(=O)Nc3cc(Oc4ccc(NC(=O)C5(C(=O)Nc6ccc(F)cc6)CC5)c(F)c4)ccn3)CC2)C1` [Example 17], the pIC50 was 7.77.

`CN1CCC(N(C)C(=O)Nc2cc(Oc3ccc(NC(=O)C4(C(=O)Nc5ccc(F)cc5)CC4)c(F)c3)ccn2)CC1` [Example 3, N-(2-Fluoro-4-{[2-({[methyl(1-methylpiperidin-4-yl)amino]carbonyl}amino)pyridin-4-yl]oxy}phenyl)-N′-(4-fluorophenyl)cyclopropane-1,1-dicarboxamide]: the pIC50 was 7.89.

The next test has as its target T1, His6-HGFR (HGFR cytoplasmic domain) (Homo sapiens, UniProt P08581).
T1 construct: made in house; host or cells: Sf9 insect cells (Spodoptera frugiperda), baculovirus, pFastBac-HT vector
The test is described as follows: Inhibitory activity against HGFR tyrosine kinase activity (HTRF). In kind it is biochemical. To be noted: biotin-poly(GT), ATP, 30° C. 10 min. In outline:
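Sf9-expressed, Ni-NTA-purified N-terminal His6-tagged HGFR cytoplasmic domain (from Lys974), 30 ng, phosphorylates 250 ng biotin-poly(GT) in Hepes pH 7.4 with MgCl2, MnCl2 and Na3VO4. Reaction started with 4 μM ATP stock, run 10 min at 30° C, stopped with EDTA. Phosphotyrosine is detected by HTRF.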
On the technique in general: In TR-FRET formats the signal depends on donor and acceptor labels being close together.
For the molecule `CN1CC(N2CCN(C(=O)Nc3cc(Oc4ccc(NC(=O)C5(C(=O)Nc6ccc(F)cc6)CC5)c(F)c4)ccn3)CC2)C1` [Example 17], the pIC50 is 7.32.

In turn, `CN1CCC(N(C)C(=O)Nc2cc(Oc3ccc(NC(=O)C4(C(=O)Nc5ccc(F)cc5)CC4)c(F)c3)ccn2)CC1` [Example 3, N-(2-Fluoro-4-{[2-({[methyl(1-methylpiperidin-4-yl)amino]carbonyl}amino)pyridin-4-yl]oxy}phenyl)-N′-(4-fluorophenyl)cyclopropane-1,1-dicarboxamide] showed a pIC50 of 7.41.

`O=C(Nc1cc(Oc2ccc(NC(=O)C3(C(=O)Nc4ccc(F)cc4)CC3)cc2F)ncn1)N1CCC(N2CCC2)CC1` [Example 34, N-{4-[(6-{[(4-Azetidin-1-ylpiperidin-1-yl)carbonyl]amino}pyrimidin-4-yl)oxy]-3-fluorophenyl}-N′-(4-fluorophenyl)cyclopropane-1,1-dicarboxamide] gave a pIC50 of 7.14.

In the case of `CN1CC(N2CCN(C(=O)Nc3cc(Oc4ccc(NC(=O)C5(C(=O)Nc6ccc(F)cc6)CC5)cc4F)ccn3)CC2)C1` [Example 22, N-(3-Fluoro-4-{[2-({[4-(1-methylazetidin-3-yl)piperazin-1-yl]carbonyl}amino)pyridin-4-yl]oxy}phenyl)-N′-(4-fluorophenyl)cyclopropane-1,1-dicarboxamide], the pIC50 is 7.30.

`O=C(Nc1cc(Oc2ccc(NC(=O)C3(C(=O)Nc4ccc(F)cc4)CC3)cc2F)ccn1)N1CC(O)C1` [Example 80, N-{3-Fluoro-4-[(2-{[(3-hydroxyazetidin-1-yl)carbonyl]amino}pyridin-4-yl)oxy]phenyl}-N′-(4-fluorophenyl)cyclopropane-1,1-dicarboxamide] gave a pIC50 of 7.74.

On to `O=C(Nc1cc(Oc2ccc(NC(=O)C3(C(=O)Nc4ccc(F)cc4)CC3)cc2F)ccn1)N1CCC(CN2CCC2)CC1` [Example 26, N-(4-{[2-({[4-(Azetidin-1-ylmethyl)piperidin-1-yl]carbonyl}amino)pyridin-4-yl]oxy}-3-fluorophenyl)-N′-(4-fluorophenyl)cyclopropane-1,1-dicarboxamide], for which the pIC50 was 7.24.

As to `O=C(Nc1cc(Oc2ccc(NC(=O)C3(C(=O)Nc4ccc(F)cc4)CC3)c(F)c2)ccn1)N1CC(O)C1` [Example 72, N-{2-Fluoro-4-[(2-{[(3-hydroxyazetidin-1-yl)carbonyl]amino}pyridin-4-yl)oxy]phenyl}-N′-(4-fluorophenyl)cyclopropane-1,1-dicarboxamide], the pIC50 was 8.00.

Molecule `CCN(CC)CCCN(C)C(=O)Nc1cc(Oc2ccc(NC(=O)C3(C(=O)Nc4ccc(F)cc4)CC3)cc2F)ccn1` [Example 44, N-(4-{[2-({[[3-(Diethylamino)propyl](methyl)amino]carbonyl}amino)pyridin-4-yl]oxy}-3-fluorophenyl)-N′-(4-fluorophenyl)cyclopropane-1,1-dicarboxamide] had a pIC50 of 7.04.

On to `CN1CCC(N(C)C(=O)Nc2cc(Oc3ccc(NC(=O)C4(C(=O)Nc5ccccc5)CC4)c(F)c3)ccn2)CC1` [Example 48, N-(2-Fluoro-4-{[2-({[methyl(1-methylpiperidin-4-yl)amino]carbonyl}amino)pyridin-4-yl]oxy}phenyl)-N′-phenylcyclopropane-1,1-dicarboxamide], for which the pIC50 was 7.20.

The molecule `CCN1CCC(N(C)C(=O)Nc2cc(Oc3ccc(NC(=O)C4(C(=O)Nc5ccccc5)CC4)c(F)c3)ccn2)CC1` [Example 60, N-(4-{[2-({[(1-Ethylpiperidin-4-yl)(methyl)amino]carbonyl}amino)pyridin-4-yl]oxy}-2-fluorophenyl)-N′-phenylcyclopropane-1′-dicarboxamide] had a pIC50 of 7.09.

The molecule `O=C(Nc1cc(Oc2ccc(NC(=O)C3(C(=O)Nc4ccc(F)cc4)CC3)cc2F)ccn1)N1CCOCC1` [Example 67, N-[3-Fluoro-4-({2-[(morpholin-4-ylcarbonyl)amino]pyridin-4-yl}oxy)phenyl]-N′-(4-fluorophenyl)-cyclopropane-1,1-dicarboxamide] gave a pIC50 of 7.77.

Take `O=C(Nc1cc(Oc2ccc(NC(=O)C3(C(=O)Nc4ccc(F)cc4)CC3)c(F)c2)ccn1)N1CCC(CN2CCCC2)CC1` [Example 40, N-(4-Fluorophenyl)-N′-(2-fluoro-4-{[2-({[4-(pyrrolidin-1-ylmethyl)piperidin-1-yl]carbonyl}amino)pyridin-4-yl]oxy}phenyl)cyclopropane-1,1-dicarboxamide]: the pIC50 was 7.26.

On to `CN(C)CC1CN(C(=O)Nc2cc(Oc3ccc(NC(=O)C4(C(=O)Nc5ccc(F)cc5)CC4)c(F)c3)ccn2)C1` [Example 77, N-[4-({2-[({3-[(Dimethylamino)methyl]azetidin-1-yl}carbonyl)amino]pyridin-4-yl}oxy)-2-fluorophenyl]-N′-(4-fluorophenyl)cyclopropane-1,1-dicarboxamide], for which the pIC50 was 7.24.

On to `CN1CCC(N2CCN(C(=O)Nc3cc(Oc4ccc(NC(=O)C5(C(=O)Nc6ccc(F)cc6)CC5)cc4)ccn3)CC2)CC1` [Example 31, N-(4-Fluorophenyl)-N′-(4-{[2-({[4-(1-methylpiperidin-4-yl)piperazin-1-yl]carbonyl}amino)pyridin-4-yl]oxy}phenyl)cyclopropane-1,1-dicarboxamide], for which the pIC50 was 7.21.

`CN(C)[C@H]1CCN(C(=O)Nc2cc(Oc3ccc(NC(=O)C4(C(=O)Nc5ccc(F)cc5)CC4)cc3)ccn2)C1` [Example 41, N-(4-{[2-({[(3S)-3-(Dimethylamino)pyrrolidin-1-yl]carbonyl}amino)pyridin-4-yl]oxy}phenyl)-N′-(4-fluorophenyl)cyclopropane-1,1-dicarboxamide] gave a pIC50 of 7.36.

On to `CN1CCC(N(C)C(=O)Nc2cc(Oc3ccc(NC(=O)C4(C(=O)Nc5ccc(F)cc5)CC4)cc3F)ncn2)CC1` [Example 33, N-(3-Fluoro-4-{[6-({[methyl(1-methylpiperidin-4-yl)amino]carbonyl}amino)pyrimidin-4-yl]oxy}phenyl)-N′-(4-fluorophenyl)cyclopropane-1,1-dicarboxamide], for which the pIC50 is 7.59.

Take `O=C(Nc1cc(Oc2ccc(NC(=O)C3(C(=O)Nc4ccc(F)cc4)CC3)cc2)ccn1)N1CCOCC1` [Example 68, N-(4-Fluorophenyl)-N′-[4-({2-[(morpholin-4-ylcarbonyl)amino]pyridin-4-yl}oxy)phenyl]cyclopropane-1,1-dicarboxamide]: the pIC50 is 7.64.

Turning to `O=C(Nc1cc(Oc2ccc(NC(=O)C3(C(=O)Nc4ccc(F)cc4)CC3)cc2F)ncn1)N1CCOCC1` [Example 35, N-[3-Fluoro-4-({6-{(morpholin-4-ylcarbonyl)amino}pyrimidin-4-yl}oxy)phenyl]-N′-(4-fluorophenyl)cyclopropane-1,1-dicarboxamide], the pIC50 is 7.54.

Consider `CN(C)[C@H]1CCN(C(=O)Nc2cc(Oc3ccc(NC(=O)C4(C(=O)Nc5ccc(F)cc5)CC4)c(F)c3)ccn2)C1` [Example 46, N-(4-{[2-({[(3S)-3-(Dimethylamino)pyrrolidin-1-yl]carbonyl}amino)pyridin-4-yl]oxy}-2-fluorophenyl)-N′-(4-fluorophenyl)cyclopropane-1,1-dicarboxamide], for which the pIC50 was 7.19.

Consider `CCN(CC)CCCNC(=O)Nc1cc(Oc2ccc(NC(=O)C3(C(=O)Nc4ccc(F)cc4)CC3)c(Cl)c2)ccn1` [Example 43, N-[2-Chloro-4-({2-[({[3-(diethylamino)propyl]amino}carbonyl)amino]pyridin-4-yl}oxy)phenyl]-N′-(4-fluorophenyl)cyclopropane-1,1-dicarboxamide], for which the pIC50 is 6.74.

Molecule `CN(C)CCN1CCC(N(C)C(=O)Nc2cc(Oc3ccc(NC(=O)C4(C(=O)Nc5ccc(F)cc5)CC4)c(F)c3)ccn2)CC1` [Example 25, N-(4-{[2-({[{1-[2-(Dimethylamino)ethyl]piperidin-4-yl}(methyl)amino]carbonyl}amino)pyridin-4-yl]oxy}-2-fluorophenyl)-N′-(4-fluorophenyl)cyclopropane-1,1-dicarboxamide] gave a pIC50 of 7.07.

Turning to `O=C(Nc1cc(Oc2ccc(NC(=O)C3(C(=O)Nc4ccc(F)cc4)CC3)cc2)ccn1)N1CCC(CN2CCC2)CC1` [Example 27, N-(4-{[2-({f [4-(Azetidin-1-ylmethyl)piperidin-1-yl]carbonyl}amino)pyridin-4-yl]oxy}phenyl)-N′-(4-fluorophenyl)cyclopropane-1,1-dicarboxamide], the pIC50 is 7.23.
